Laboratory results: patent publication US20080249156A1, “Combinations of statins and anti-obesity agent and glitazones” (priority 2007, published 2008)
Read-outs that look alike come from different tables or passages of the source.

Experiments:
[1] = not given; remark: listed apart in the source
[2] = Example 1, patient on rosiglitazone 4 mg once a day
[3] = Example 2, patient on rosiglitazone 4 mg twice a day and metformin 500 mg twice daily
[4] = Example 3, patient on rosiglitazone 8 mg once daily and metformin 500 mg once daily

CN(CCOc1ccc(CC2SC(=O)NC2=O)cc1)c1ccccn1 (stereo not drawn) [rosiglitazone]
increase: total cholesterol since beginning the rosiglitazone therapy [2] | total cholesterol since beginning the rosiglitazone therapy [3] | total cholesterol since beginning the rosiglitazone therapy [4] | body weight since beginning the rosiglitazone therapy [1, 2] | body weight since beginning the rosiglitazone therapy [1, 3] | body weight since beginning the rosiglitazone therapy [1, 4]
